Test results published in PMC7161699 (Acta Pharmaceutica Sinica. B, 2019).

Biological target: PAK1 (Homo sapiens, UniProt Q13153)
Assay: Z'-LYTE kinase assay, Ser/Thr […] peptide
Format: biochemical

Chain of PAK1 (Q13153 2-545): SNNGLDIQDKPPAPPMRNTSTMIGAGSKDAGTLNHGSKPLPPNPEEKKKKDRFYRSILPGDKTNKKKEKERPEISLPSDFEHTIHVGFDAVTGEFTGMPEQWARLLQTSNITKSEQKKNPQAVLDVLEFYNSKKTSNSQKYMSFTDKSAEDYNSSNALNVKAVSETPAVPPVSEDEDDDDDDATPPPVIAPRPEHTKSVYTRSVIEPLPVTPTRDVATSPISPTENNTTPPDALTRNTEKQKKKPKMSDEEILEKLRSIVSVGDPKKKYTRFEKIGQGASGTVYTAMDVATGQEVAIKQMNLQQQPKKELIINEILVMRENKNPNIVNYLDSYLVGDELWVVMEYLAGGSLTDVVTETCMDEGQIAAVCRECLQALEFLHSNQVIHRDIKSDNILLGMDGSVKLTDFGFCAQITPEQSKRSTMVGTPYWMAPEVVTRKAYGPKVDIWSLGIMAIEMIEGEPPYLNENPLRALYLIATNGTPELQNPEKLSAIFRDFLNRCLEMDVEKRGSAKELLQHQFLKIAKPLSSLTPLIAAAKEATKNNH

IC50: 15.3 µM
Structure (SMILES): Cc1ccc2[nH]c(=O)c3cc(C(=O)NCCCN(C)Cc4ccccc4)sc3c2c1 [CP734, N-[3-(benzyl-methylamino)propyl]-8-methyl-4-oxo-5H-thieno[4,5-c]quinoline-2-carboxamide]
